In patent publication US20260274855A1, “AMORPHOUS FORM OF ISOQUINOLINE DERIVATIVE” (vTv Therapeutics LLC, priority 2020, published 2026):
Counter-ions that a name gives are not always drawn. Like-named read-outs stand apart in the source and are kept apart here.

Experiments:
Assay type in all cases: physicochemical
[1] = 3 month stability study at 25° C. ± 2° C. and 60% RH
Procedure: A 3-month stability study was conducted at 25° C.±2° C. and 60% relative humidity.

[2] = Dissolution studies, four-part dissolution test method of Chinese Pharmacopoeia (2015 edition)
Procedure: Dissolution studies were conducted according to the four-part dissolution test method in the Chinese Pharmacopoeia (2015 edition) in the following solvents: methanol, acetic acid, ethanol, 0.1 mol/L HCl, acetonitrile, and 2-methyltetrahydrofuran. The dissolution study method involves weighing a fine powder (after grinding) of solid test product, attempting to dissolve in a proper volume of solvent by strongly shaking for 30 seconds every 5 minutes for 30 minutes, and recording observations after 30 minutes.

[3] = Stability study at 40° C. and 100% RH for 7 days
Procedure: The stability of crystal form B of OAD2 hydrochloride and the amorphous form of OAD2 dihydrochloride was tested under conditions of 40° C./100% RH for 1 week.

[4] = Hygroscopicity study, DVS test (25° C., 80% RH)
Procedure: Dynamic moisture adsorption (DVS) curves were collected on DVS Intrinsic of Surface Measurement Systems (SMS). The relative humidity at 25° C. was corrected with the deliquescent points of LiCl, Mg(NO3)2 and KCl.

[5] = Solubility in aqueous solutions at various pH's
[6] = 30-day stability study at 60° C.
Procedure: A 30-day stability study at 60° C. was conducted on a sample of material obtained from the method of Example 3.

[7] = Month 0, listed as Ex. 3, dihydrochloride salt
[8] = Month 0, listed as Ex. 4, dihydrochloride salt
[9] = Month 0, listed as Ex. 5, dihydrochloride salt
[10] = Month 1, listed as Ex. 3, dihydrochloride salt
[11] = Month 1, listed as Ex. 4, dihydrochloride salt
[12] = Month 1, listed as Ex. 5, dihydrochloride salt
[13] = Month 2, listed as Ex. 3, dihydrochloride salt
[14] = Month 2, listed as Ex. 4, dihydrochloride salt
[15] = Month 2, listed as Ex. 5, dihydrochloride salt
[16] = Month 3, listed as Ex. 3, dihydrochloride salt
[17] = Month 3, listed as Ex. 4, dihydrochloride salt
[18] = Month 3, listed as Ex. 5, dihydrochloride salt

## CC[C@@H](c1ccccc1)N1Cc2cc3c(cc2C[C@H]1C(=O)N[C@@H](Cc1ccc(-c2ccnc(C)c2C)cc1)C(=O)O)OC[C@H](c1ccc(OCc2ccc(Cl)c(Cl)c2)cc1)O3 [OAD2 dihydrochloride, (S)-2-(3S,8S)-3-(4-(3,4-dichlorobenzyloxy)phenyl-7-((S)-1-phenylpropyl)-2,3,6,7,8,9-hexahydro-[1,4]-dioxino[2,3-g]isoquinolin-8-ylformylamino)-3-(4-(2,3-dimethylpyridin-4-yl)phenyl)propionic acid dihydrochloride salt]
[1]; Month 0
  Appearance: Off-white
  Solid form: Amorphous
[1]; [7]
  Moisture Content: 1.7%
  Percentage of external standard content: 98.1%
  Purity: 99.30%
[1]; [8]
  Moisture Content: 2.5%
  Percentage of external standard content: 97.1%
  Purity: 98.7%
[1]; [9]
  Moisture Content: 1.6%
  Percentage of external standard content: 97.1%
  Purity: 99.03%
[1]; Month 1
  Appearance: Off-white
  Solid form: Amorphous
[1]; [10]
  Moisture Content: 3.1%
  Percentage of external standard content: 99.0%
  Purity: 99.25%
[1]; [11]
  Moisture Content: 4.7%
  Percentage of external standard content: 96.8%
  Purity: 98.6%
[1]; [12]
  Moisture Content: 3.3%
  Percentage of external standard content: 97.2%
  Purity: 98.90%
[1]; Month 2
  Appearance: Off-white
  Solid form: Amorphous
[1]; [13]
  Moisture Content: 3.4%
  Percentage of external standard content: 98.7%
  Purity: 99.30%
[1]; [14]
  Moisture Content: 3.6%
  Percentage of external standard content: 97.6%
  Purity: 98.6%
[1]; [15]
  Moisture Content: 4.1%
  Percentage of external standard content: 97.8%
  Purity: 98.90%
[1]; Month 3
  Appearance: Off-white
  Solid form: Amorphous
[1]; [16]
  Moisture Content: 3.7%
  Percentage of external standard content: 99.8%
  Purity: 99.23%
[1]; [17]
  Moisture Content: 4.8%
  Percentage of external standard content: 98.2%
  Purity: 98.5%
[1]; [18]
  Moisture Content: 4.5%
  Percentage of external standard content: 98.7%
  Purity: 98.90%
[2]; 0.1 mol/L HCl, about 1 g sample in 9.99 mL, after 30 minutes, listed as 3, dihydrochloride salt
  Dissolution: Incomplete
[2]; 0.1 mol/L HCl, about 1 g sample in 9.99 mL, after 30 minutes, listed as 4, dihydrochloride salt
  Dissolution: Incomplete
[2]; 0.1 mol/L HCl, about 1 g sample in 9.99 mL, after 30 minutes, listed as 5, dihydrochloride salt
  Dissolution: Incomplete
[2]; 0.1 mol/L HCl, about 1 g sample in 9.99 mL, after 30 minutes, listed as amorphous solid of OAD2 dihydrochloride salt, dihydrochloride salt
  Dissolution: completely dissolved
[2]; 0.1 mol/L HCl, about 1 g sample in 29.99 mL, after 30 minutes
  Dissolution: Complete
[2]; 2-methyl tetrahydrofuran, about 0.01 g sample in 101 mL, after 30 minutes, listed as 3, dihydrochloride salt
  Dissolution: Incomplete
[2]; 2-methyl tetrahydrofuran, about 0.01 g sample in 101 mL, after 30 minutes, listed as 4, dihydrochloride salt
  Dissolution: Incomplete
[2]; 2-methyl tetrahydrofuran, about 0.01 g sample in 101 mL, after 30 minutes, listed as 5, dihydrochloride salt
  Dissolution: Incomplete
[2]; 2-methyl tetrahydrofuran, about 0.01 g sample in 101 mL, after 30 minutes, listed as amorphous solid of OAD2 dihydrochloride salt, dihydrochloride salt
  Dissolution: incompletely dissolved
[2]; Acetonitrile, about 0.01 g sample in 101 mL, after 30 minutes, listed as 3, dihydrochloride salt
  Dissolution: Incomplete
[2]; Acetonitrile, about 0.01 g sample in 101 mL, after 30 minutes, listed as 4, dihydrochloride salt
  Dissolution: Incomplete
[2]; Acetonitrile, about 0.01 g sample in 101 mL, after 30 minutes, listed as 5, dihydrochloride salt
  Dissolution: Incomplete
[2]; Acetonitrile, about 0.01 g sample in 101 mL, after 30 minutes, listed as amorphous solid of OAD2 dihydrochloride salt, dihydrochloride salt
  Dissolution: incompletely dissolved
[2]; Ethanol, about 1 g sample in 9.99 mL, after 30 minutes, listed as 3, dihydrochloride salt
  Dissolution: Incomplete
[2]; Ethanol, about 1 g sample in 9.99 mL, after 30 minutes, listed as 4, dihydrochloride salt
  Dissolution: Incomplete
[2]; Ethanol, about 1 g sample in 9.99 mL, after 30 minutes, listed as 5, dihydrochloride salt
  Dissolution: Incomplete
[2]; Ethanol, about 1 g sample in 9.99 mL, after 30 minutes, listed as amorphous solid of OAD2 dihydrochloride salt, dihydrochloride salt
  Dissolution: completely dissolved
[2]; Ethanol, about 1 g sample in 29.99 mL, after 30 minutes
  Dissolution: Complete
[2]; Methanol, about 1 g sample in 9.99 mL, after 30 minutes, listed as 3, dihydrochloride salt
  Dissolution: Complete
[2]; Methanol, about 1 g sample in 9.99 mL, after 30 minutes, listed as 4, dihydrochloride salt
  Dissolution: Complete
[2]; Methanol, about 1 g sample in 9.99 mL, after 30 minutes, listed as 5, dihydrochloride salt
  Dissolution: Complete
[2]; Methanol, about 1 g sample in 9.99 mL, after 30 minutes, listed as amorphous solid of OAD2 dihydrochloride salt, dihydrochloride salt
  Dissolution: completely dissolved
[2]; acetic acid, about 10 mL of solvent
  Dissolution: completely dissolved
[3]; 40° C./100% RH for 1 week
  Decrease in purity: no distinct decrease in purity
[3]; 40° C./100% RH/7 d
  HPLC (area %): 97.51 area %
[3]; Initiation
  HPLC (area %): 98.91 area %
[4]
  Moisture adsorption rate: 8.3%
[5]; Buffer pH 5
  solubility: Not detectable
[5]; aqueous solution, aqueous buffer, thermodynamic from solid, Buffer pH 7, read-out: Solubility
  solubility: 90 µg/mL
[5]; aqueous solution, aqueous buffer, thermodynamic from solid, Buffer pH 9, read-out: Solubility
  solubility: 50 µg/mL
[5]; aqueous solution, aqueous buffer, thermodynamic from solid, solvent 0.1 NaOH, read-out: Solubility
  solubility: 17 µg/mL
[5]; aqueous solution, simulated gastric fluid, thermodynamic from solid, solvent 0.1 HCl, read-out: Solubility
  solubility: > 51000 µg/mL
[5]; solvent 0.1 HCl, listed as OAD2 dihydrochloride salt, dihydrochloride salt
  solubility: >51000 µg/mL
[6]; Day 0
  Appearance: Off-white
  Moisture Content: 1.6%
  Percentage of external standard content: 97.1%
  Purity: 99.03%
  Solid form: Amorphous
[6]; Day 5
  Appearance: Off-white
  Moisture Content: 2.7%
  Percentage of external standard content: 99.1%
  Purity: 98.7%
  Solid form: Amorphous
[6]; Day 10
  Appearance: Off-white
  Moisture Content: 2.4%
  Percentage of external standard content: 97.5%
  Purity: 98.7%
  Solid form: Amorphous
[6]; Day 30
  Appearance: Pale-yellow
  Moisture Content: 2.5%
  Percentage of external standard content: 97.4%
  Purity: 97.7%
  Solid form: Amorphous
